According to ChEMBL document CHEMBL3621065, “Structure-activity relationship studies of SETD8 inhibitors” (Medchemcomm, 2014):
pIC50: −log10 of the molar value.

Target: T1, N-lysine methyltransferase KMT5A (Homo sapiens, UniProt Q9NQR1)
T1 sequence (Q9NQR1 whole entry): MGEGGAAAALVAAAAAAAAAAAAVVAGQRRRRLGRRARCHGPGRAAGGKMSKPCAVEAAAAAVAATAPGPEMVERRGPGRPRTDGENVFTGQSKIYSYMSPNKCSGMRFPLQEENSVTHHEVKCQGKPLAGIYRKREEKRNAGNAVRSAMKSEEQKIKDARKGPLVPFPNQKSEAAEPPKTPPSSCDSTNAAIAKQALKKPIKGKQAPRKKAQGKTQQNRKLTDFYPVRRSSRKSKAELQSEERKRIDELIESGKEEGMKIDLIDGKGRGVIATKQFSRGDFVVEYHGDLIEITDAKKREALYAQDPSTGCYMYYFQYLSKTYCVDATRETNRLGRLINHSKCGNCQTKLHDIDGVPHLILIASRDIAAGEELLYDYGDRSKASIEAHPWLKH
Assay: Inhibition of human SETD8 catalytic domain expressed in Escherichia coli assessed as reduction in transfer of tritiated methyl group from [3H]SAM to biotinylated H4 (1 to 24) peptide substrate by scintillation proximity assay

COc1cc2nc(N3CCCC3)nc(NCC(=O)NCCN3CCN(C)CC3)c2cc1OC
pIC50: < 3.60

COc1cc2nc(N3CCCC3)nc(N[C@H]3CC[C@H](N)CC3)c2cc1OC
pIC50: < 3.60

COc1cc2nc(N3CCCC3)nc(N[C@H]3CC[C@H](CN)CC3)c2cc1OC
pIC50: < 3.60

COc1cc2nc(N3CCCC3)nc(NCC(=O)NCCN3CCCC3)c2cc1OC
pIC50: < 3.60

COc1cc2nc(N3CCCC3)nc(NCC(=O)NCCN3CCNCC3)c2cc1OC
pIC50: < 3.60

COc1cc2nc(N(C)CCN3CCCC3)nc(NCCCCCN3CCCC3)c2cc1OC
pIC50: < 3.60

COc1cc2nc(N(C)CCCN3CCCC3)nc(NCCCCCN3CCCC3)c2cc1OC
pIC50: < 3.60

COc1cc2nc(N(C)CCCCN3CCCC3)nc(NCCCCCN3CCCC3)c2cc1OC
pIC50: < 3.60

COc1cc2nc(N(C)CCCCCN3CCCC3)nc(NCCCCCN3CCCC3)c2cc1OC
pIC50: < 3.60

COc1cc2nc(N(C)c3ccccc3)nc(NCCCCCN3CCCC3)c2cc1OC
pIC50: < 3.60

COc1ccc(N(C)c2nc(NCCCCCN3CCCC3)c3cc(OC)c(OC)cc3n2)cc1
pIC50: < 3.60

COc1cc2nc(N(C)c3ccc([N+](=O)[O-])cc3)nc(NCCCCCN3CCCC3)c2cc1OC
pIC50: < 3.60

COc1cc2nc(Nc3ccccc3)nc(NCCCCCN3CCCC3)c2cc1OC
pIC50: < 3.60

COc1ccc(Nc2nc(NCCCCCN3CCCC3)c3cc(OC)c(OC)cc3n2)cc1
pIC50: < 3.60

COc1cc2nc(Nc3ccc(C(F)(F)F)cc3)nc(NCCCCCN3CCCC3)c2cc1OC
pIC50: < 3.60

COc1cc2nc(Nc3ccc([N+](=O)[O-])cc3)nc(NCCCCCN3CCCC3)c2cc1OC
pIC50: < 3.60

COc1cc2nc(-c3ccccc3)nc(NCCCCCN3CCCC3)c2cc1OC
pIC50: < 3.60

COc1ccc(-c2nc(NCCCCCN3CCCC3)c3cc(OC)c(OC)cc3n2)cc1
pIC50: < 3.60

COc1cc2nc(-c3ccc(C(F)(F)F)cc3)nc(NCCCCCN3CCCC3)c2cc1OC
pIC50: < 3.60

COc1cc2nc(-c3ccc(F)cc3)nc(NCCCCCN3CCCC3)c2cc1OC
pIC50: < 3.60

c1ccc2c(NCCCCCN3CCCC3)nc(N3CCCC3)nc2c1
pIC50: < 3.60
